Residues, ends and D or L forms follow the SMILES beside them.
Test system: ischemic myocardium
Assay: Inotropic function and arrhythmias of ischemic isolated rat heart during reperfusion
Settings: for Number of Ventricular Extrasystoles / Overall Duration of Ventricular Fibrillation / Overall Duration of Ventricular Tachycardia: 30-minute reperfusion
Excerpt: Rat hearts were surgically isolated from white random-bred rats weighing approximately 250 g. The isolated hearts were perfused with a standard oxygenated (95% O2 and 5% CO2) Krebs-Henseleit solution in a retrograde manner (i.e., according to Langendorff and using a constant perfusate pressure of 80 cm of water). The hearts maintained a steady spontaneous contraction rate. A latex balloon catheter connected to a pressure transducer (EMT-746, Siemens-Elema, Sweden) was inserted into the left ventricle of each heart to measure the inotropic function of the heart (as described in Example 3, above). The left ventricle pressure variation curve was recorded using a polygraph.
Stage I ("adaptation regimen") consisted of a 30-minute adaptation of the respective rat hearts to the perfusion regimen. The baseline parameters for the inotropic function of each heart were recorded to establish the preischemic values for the following measured parameters: (i) the systolic pressure in the left ventricle (Psyst. mm Hg); (ii) the diastolic pressure in the left ventricle (Pdiast. mm Hg); (iii) the evolving pressure (Pev. =Psyst. -Pdist. mm Hg); (iv) the maximal rate of increase of left ventricle pressure (+dp/dtmax mm Hg/sec); and (v) the maximal rate of decrease of left ventricle pressure (-dp/dtmax mm Hg/sec). In addition, the heart rate (HR) of each heart was determined from the recordings made of the variations in the left ventricle pressure over time. In Stage II ("ischemic simulation"), ischemia was induced in each heart by shutting off the supply of the perfusion solution to the heart. Approximately 30 minutes later, Stage III ("reperfusion regimen") was initiated by restarting the reperfusion and including in the perfusate solution a test or control substance at one of the following respective concentrations: a perfusate solution of a test substance comprised 0.06, 0.6, or 6.0 mg/l GE, or 0.06, 0.6, or 6.0 mg/l VT, respectively; a perfusate solution of the positive control substance comprised 14 mg/l inosine. Inosine is a nucleoside preparation that produces a favorable inotropic effect on both normal and ischemic myocardium while inducing no rhythm disturbances or acceleration of ischemic contracture development. Woollard et al., Cardiovasc. Res. 15: 659-67 (1981). Inosine was obtained from Sigma Chemical Company, USA (Cat. Code I-4125; lot number 81H0227). The negative control substance comprised reperfusion using a standard oxygenated Krebs-Henseleit solution.
For each heart, the inotropic function of the myocardium was evaluated by measuring the parameters (i) through (v), discussed above, and the heart rate. These six parameters were recorded continuously throughout the study (i.e., beginning with Stage I and continuing through Stage III). The recordings were analyzed at the following times: (a) immediately before beginning Stage II (that is, after the 30-minute Stage I adaptation period, but before stopping perfusion); and (b) at 1, 5, 10, 20, and 30 minutes into the Stage III reperfusion.
The frequency and duration of rhythm disturbances in the 30-minute Stage III reperfusion period were determined by measuring the following parameters: (i) the number of ventricular extrasystoles; (ii) the overall duration of ventricular tachycardias (in seconds); and (iii) the overall duration of ventricular fibrillation (in seconds). Each dose of the test substance was tested on nine isolated hearts.

NCC(=O)N[C@@H](CCC(=O)O)C(=O)O [GE, L-Glycyl-L-Glutamic acid] (H-Gly-Glu-OH)
Number of Ventricular Extrasystoles (0.06 mg/l): 182.2 | Overall Duration of Ventricular Fibrillation (0.06 mg/l): 0 s | Overall Duration of Ventricular Tachycardia (0.06 mg/l): 2.1 s | Diastolic Pressure in Ischemic Left Ventricle (% of Preischemic Mean Value) (0.06 mg/l, 1 min reperfusion): 95.96% | Evolving Pressure in Ischemic Left Ventricle (% of Preischemic Mean Value) (0.06 mg/l, 1 min reperfusion): 117.70% | Heart Rate during Reperfusion (% of Preischemic Mean Value) (0.06 mg/l, 1 min reperfusion): 69.09% | Maximal Rate of Increase of Left Ventricle Pressure (% of Preischemic Mean Value) (0.06 mg/l, 1 min reperfusion): 127.30% | Maximal Rate of Left Ventricle Pressure Decrease (% of Preischemic Mean Value) (0.06 mg/l, 1 min reperfusion): 86.91% | Systolic Pressure in Ischemic Left Ventricle (% of Preischemic Values) (0.06 mg/l, 1 min reperfusion): 115.11% | Diastolic Pressure in Ischemic Left Ventricle (% of Preischemic Mean Value) (0.06 mg/l, 5 min reperfusion): 124.53% | Evolving Pressure in Ischemic Left Ventricle (% of Preischemic Mean Value) (0.06 mg/l, 5 min reperfusion): 92.58% | Heart Rate during Reperfusion (% of Preischemic Mean Value) (0.06 mg/l, 5 min reperfusion): 91.94% | Maximal Rate of Increase of Left Ventricle Pressure (% of Preischemic Mean Value) (0.06 mg/l, 5 min reperfusion): 98.87% | Maximal Rate of Left Ventricle Pressure Decrease (% of Preischemic Mean Value) (0.06 mg/l, 5 min reperfusion): 89.27% | Systolic Pressure in Ischemic Left Ventricle (% of Preischemic Values) (0.06 mg/l, 5 min reperfusion): 98.86% | Diastolic Pressure in Ischemic Left Ventricle (% of Preischemic Mean Value) (0.06 mg/l, 10 min reperfusion): 128.57% | Evolving Pressure in Ischemic Left Ventricle (% of Preischemic Mean Value) (0.06 mg/l, 10 min reperfusion): 86.19% | Heart Rate during Reperfusion (% of Preischemic Mean Value) (0.06 mg/l, 10 min reperfusion): 93.44% | Maximal Rate of Increase of Left Ventricle Pressure (% of Preischemic Mean Value) (0.06 mg/l, 10 min reperfusion): 87.39% | Maximal Rate of Left Ventricle Pressure Decrease (% of Preischemic Mean Value) (0.06 mg/l, 10 min reperfusion): 82.04% | Systolic Pressure in Ischemic Left Ventricle (% of Preischemic Values) (0.06 mg/l, 10 min reperfusion): 89.79% | Diastolic Pressure in Ischemic Left Ventricle (% of Preischemic Mean Value) (0.06 mg/l, 20 min reperfusion): 134.92% | Evolving Pressure in Ischemic Left Ventricle (% of Preischemic Mean Value) (0.06 mg/l, 20 min reperfusion): 74.40% | Heart Rate during Reperfusion (% of Preischemic Mean Value) (0.06 mg/l, 20 min reperfusion): 72.87% | Maximal Rate of Increase of Left Ventricle Pressure (% of Preischemic Mean Value) (0.06 mg/l, 20 min reperfusion): 87.39% | Maximal Rate of Left Ventricle Pressure Decrease (% of Preischemic Mean Value) (0.06 mg/l, 20 min reperfusion): 75.11% | Systolic Pressure in Ischemic Left Ventricle (% of Preischemic Values) (0.06 mg/l, 20 min reperfusion): 84.10% | Diastolic Pressure in Ischemic Left Ventricle (% of Preischemic Mean Value) (0.06 mg/l, 30 min reperfusion): 91.20% | Evolving Pressure in Ischemic Left Ventricle (% of Preischemic Mean Value) (0.06 mg/l, 30 min reperfusion): 68.73% | Heart Rate during Reperfusion (% of Preischemic Mean Value) (0.06 mg/l, 30 min reperfusion): 68.67% | Maximal Rate of Increase of Left Ventricle Pressure (% of Preischemic Mean Value) (0.06 mg/l, 30 min reperfusion): 70.93% | Maximal Rate of Left Ventricle Pressure Decrease (% of Preischemic Mean Value) (0.06 mg/l, 30 min reperfusion): 66.02% | Systolic Pressure in Ischemic Left Ventricle (% of Preischemic Values) (0.06 mg/l, 30 min reperfusion): 72.11% | Number of Ventricular Extrasystoles (0.6 mg/l): 168.5 | Overall Duration of Ventricular Fibrillation (0.6 mg/l): 44.3 s | Overall Duration of Ventricular Tachycardia (0.6 mg/l): 22.2 s | Diastolic Pressure in Ischemic Left Ventricle (% of Preischemic Mean Value) (0.6 mg/l, 1 min reperfusion): 69.70% | Evolving Pressure in Ischemic Left Ventricle (% of Preischemic Mean Value) (0.6 mg/l, 1 min reperfusion): 71.90% | Heart Rate during Reperfusion (% of Preischemic Mean Value) (0.6 mg/l, 1 min reperfusion): 52.28% | Maximal Rate of Increase of Left Ventricle Pressure (% of Preischemic Mean Value) (0.6 mg/l, 1 min reperfusion): 71.21% | Maximal Rate of Left Ventricle Pressure Decrease (% of Preischemic Mean Value) (0.6 mg/l, 1 min reperfusion): 53.56% | Systolic Pressure in Ischemic Left Ventricle (% of Preischemic Values) (0.6 mg/l, 1 min reperfusion): 74.01% | Diastolic Pressure in Ischemic Left Ventricle (% of Preischemic Mean Value) (0.6 mg/l, 5 min reperfusion): 113.42% | Evolving Pressure in Ischemic Left Ventricle (% of Preischemic Mean Value) (0.6 mg/l, 5 min reperfusion): 83.73% | Heart Rate during Reperfusion (% of Preischemic Mean Value) (0.6 mg/l, 5 min reperfusion): 85.30% | Maximal Rate of Increase of Left Ventricle Pressure (% of Preischemic Mean Value) (0.6 mg/l, 5 min reperfusion): 84.14% | Maximal Rate of Left Ventricle Pressure Decrease (% of Preischemic Mean Value) (0.6 mg/l, 5 min reperfusion): 79.56% | Systolic Pressure in Ischemic Left Ventricle (% of Preischemic Values) (0.6 mg/l, 5 min reperfusion): 90.02% | Diastolic Pressure in Ischemic Left Ventricle (% of Preischemic Mean Value) (0.6 mg/l, 10 min reperfusion): 95.24% | Evolving Pressure in Ischemic Left Ventricle (% of Preischemic Mean Value) (0.6 mg/l, 10 min reperfusion): 86.63% | Heart Rate during Reperfusion (% of Preischemic Mean Value) (0.6 mg/l, 10 min reperfusion): 77.07% | Maximal Rate of Increase of Left Ventricle Pressure (% of Preischemic Mean Value) (0.6 mg/l, 10 min reperfusion): 88.69% | Maximal Rate of Left Ventricle Pressure Decrease (% of Preischemic Mean Value) (0.6 mg/l, 10 min reperfusion): 87.20%
